Measurements: article PMC12031237, “Toxicity Assessment of (4Z)-Lachnophyllum and (4Z,8Z)-Matricaria Lactones: Implications for Environmental Safety of Bioherbicides” (Toxins, 2025)
Converted amounts (≈) assume the structure as drawn. Where two headings read alike, the source gives them in different places.

Legend:
D. magna [1] = test: Literature acute toxicity of herbicides to D. magna; format: in vivo, Daphnia magna
From the text: (§1) Table 3 EC50 values from the literature for the aquatic test species exposed to multiple commonly used herbicides. | column: Hazard Ranking

D. magna [2] = conditions: 48 h, cited from earlier work
R. subcapitata [3] = conditions: cited from earlier work
A. fischeri [4] = test: Literature acute toxicity of herbicides to A. fischeri; format: cell-based, Aliivibrio fischeri
From the text: as §1

A. fischeri [5] = conditions: 30 min, cited from earlier work
R. subcapitata [6] = test: Literature growth inhibition of R. subcapitata by herbicides; format: cell-based, Raphidocelis subcapitata
From the text: as §1

C. elegans = test: Nematode survival bioassay in soil, ASTM E2172-01; format: in vivo; conditions: 24 h exposure, positive control
Description: The nematode bioassay was carried out using the Caenorhabditis elegans wild-type strain N2, Bristol variant, according to the ASTM E2172—01 Standard Method (2014). Culture was maintained on NGM (nematode growth media) plates seeded with Escherichia coli (uracil-deficient OP50 strain) and stored at 20 °C. The tests were conducted using age-synchronized adult nematodes, obtained by lysing gravid nematodes with a bleaching solution (10 g/L NaOH, 10.5 g/L NaOCl), followed by centrifugation and washing with an M9 mineral medium (2.2 mM KH2PO4, 4.2 mM Na2HPO4, 85.6 mM NaCl, and 1 mM MgSO4). The synchronized nematodes were then transferred to NGM agar plates and left to recover overnight.
Soil samples (2.33 g) were hydrated to 35–45% of their dry weight using K-medium in centrifuge tubes. Ten worms were transferred to each tube and exposed to the soil samples for 24 h at 20 °C. […] Treatments were performed in triplicate, with worms kept unfed during the exposure period. Nematodes were extracted by centrifugation (2000 rpm, 2 min) using silica gel (Ludox TM 50, Sigma-Aldrich, St. Louis, MO, USA) with a specific density of 1.13 g/mL. The supernatant was then transferred to 100 mm glass Petri dishes and washed with Keller (K) medium. Extracted individuals were counted under a microscope (40× magnification), with mortality as the measured endpoint. Test validity required a minimum of 80% nematode recovery and 90% survival in the control group.

A. fischeri [7] = test: Bioluminescence (light) inhibition test, ISO 11348-3; conditions: 30 min exposure; standard error in brackets, n = 3
Description: The bioluminescence inhibition test (30 min) was detected with the A. fischeri (NRRLB-11177) supplied by MicroBioTest, Gent, Belgium, and according to ISO 11348-3 [59]. The bioluminescence was determined by the luminometer Microtox (Model 500 analyzer, New Castle, DE, USA) at 490 nm. To provide the required osmotic pressure for the bacterium, the stock solution was diluted to perform the test in saline water solution (2% sodium chloride, NaCl). The concentrations tested correspond to 0.19, 0.39, 0.78, 1.56, and 3.12 mg L^−^1 and a negative control of 0 mg L^−^1. Toxicity tests were performed in triplicate with a control, and the percentage luminescence inhibition was expressed as the ratio of the decrease in bacterial light production to the remaining light.
(§2) Data analysis was conducted using RStudio for Windows (Version 2024.09.1). Dose–response models were applied to estimate the effective concentrations (EC10 and EC50) for the tested endpoints using the “drc” package. For D. magna, the data were modeled with a binomial log-logistic approach, whereas data for R. subcapitata, A. fischeri and L. sativum were fitted to log-logistic models with the upper limit constrained to 100. Furthermore, to ensure assay sensitivity and validity, a positive control exposed to potassium dichromate for the aquatic species and copper chloride for C. elegans was tested under the same experimental conditions.

D. magna [8] = test: Crustacean immobility acute test, ISO 6341; format: in vivo, Daphnia magna
Description: The immobility acute test (48 h) with D. magna was conducted according to ISO 6341 [60]. D. magna was selected from laboratory stock cultures at the Hygiene Laboratory of the Department of Biology of the University of Naples Federico II, placed in ISO medium, and fed daily with the microalgae R. subcapitata. For the test, five neonates (third brood, <24 h old) were exposed in 10 mL of ISO medium to the following corresponding concentrations: 0.22, 0.43, 0.86, 1.73, 3.46, 6.91, 13.83, 27.65, and 55.30 mg L^−^1 and a negative control of 0 mg L^−^1. Each concentration had 4 replicates, and immobility was assessed after 24 and 48 h of exposure.
as §2

R. subcapitata [9] = test: Algal growth inhibition test, ISO 8692; conditions: positive control
Description: The algal growth inhibition test (72 h) with R. subcapitata was carried out according to ISO 8692 [58]. The algal density was determined by spectrophotometric analysis (DR5000, Hach Lange GbH, Weinheim, Germany) at 670 nm. The concentrations tested correspond to 0.19, 0.39, 0.78, 1.56, and 3.12 mg L^−^1 and a negative control of 0 mg L^−^1. The growth inhibition was calculated as the difference in growth at the end of the test of the sample and the control group. Toxicity tests were carried out in triplicate.
as §2

[10] = GHS ranking of 48 h EC50 of ref 49
[11] = GHS ranking of 30 min EC50 of ref 49
[12] = GHS ranking of 72 h EC50 of ref 49
[13] = GHS ranking of 96 h EC50 of ref 47

For `CCNc1nc(Cl)nc(NC(C)C)n1` [Atrazine], the “Hazard Ranking” value (D. magna [1]; [10]) is given as “**** (Very toxic (≤1 mg L^−1))”, the EC50 (D. magna [2]; ref 49) is given as 0.05 mg/L (≈ 0.232 µM) and the EC50 (R. subcapitata [3]; 72 h) is given as 0.02 µg/mL (≈ 0.0927 µM). For the same molecule, the “Hazard Ranking” value (A. fischeri [4]; [11]) was “** (harmful: (<10 mg L^−1 ≤ 100 mg L^−1))”, the EC50 (A. fischeri [5]; ref 49) was 39.80 µg/mL (≈ 185 µM) and the “Hazard Ranking” value (R. subcapitata [6]; [12]) was “**** (Very toxic (≤1 mg L^−1))”.
For `O=C(O)CNCP(=O)(O)O` [Glyphosate], the “Hazard Ranking” value (D. magna [1]; GHS ranking of 48 h EC50 (commercial formulation) of ref 39) was “*** (toxic (<1 mg L^−1 ≤ 10 mg L^−1))”, the “Hazard Ranking” value (D. magna [1]; GHS ranking of 48 h EC50 (isopropylamine salt) of ref 39) was “*** (toxic (<1 mg L^−1 ≤ 10 mg L^−1))” and the “Hazard Ranking” value (D. magna [1]; GHS ranking of 48 h EC50 of ref 40) was “*** (toxic (<1 mg L^−1 ≤ 10 mg L^−1))”. The “Hazard Ranking” value (D. magna [1]; GHS ranking of 48 h EC50 of ref 41) was “*** (toxic (<1 mg L^−1 ≤ 10 mg L^−1))”, the “Hazard Ranking” value (D. magna [1]; GHS ranking of 48 h LC50 of ref 42) was “** (harmful: (<10 mg L^−1 ≤ 100 mg L^−1))” and the “Hazard Ranking” value (D. magna [1]; GHS ranking of 48 h LC50 of ref 43) was “* (not harmful: (>100 mg L^−1))”. For the same molecule, the “Hazard Ranking” value (D. magna [1]; GHS ranking of 48 h LC50 of ref 44) was “**** (Very toxic (≤1 mg L^−1))”, the “Hazard Ranking” value (D. magna [1]; GHS ranking of 48 h LC50 of ref 45) was “*** (toxic (<1 mg L^−1 ≤ 10 mg L^−1))” and the “Hazard Ranking” value (D. magna [1]; GHS ranking of 48 h LC50 of ref 46) was “** (harmful: (<10 mg L^−1 ≤ 100 mg L^−1))”. The EC50 (D. magna [2]; average of multiple tests performed, given as isopropylamine salt) was 4.30 °° mg L^−1, the EC50 (D. magna [2]; average of multiple tests performed, rounded up (formulation commercially available)) was 7.15 ° mg L^−1 and the EC50 (D. magna [2]; ref 40) was 4.20 mg/L (≈ 24.8 µM). For the same molecule, the EC50 (D. magna [2]; ref 41) was 8.90 mg/L (≈ 52.6 µM), the LC50 (D. magna [2]; ref 42) was 21.34 µg/mL (≈ 126 µM) and the LC50 (D. magna [2]; ref 43) was 190.0 µg/mL (≈ 1120 µM). The LC50 (D. magna [2]; ref 44) was 0.012 µg/mL (≈ 0.071 µM), the LC50 (D. magna [2]; ref 45) was 9.34 µg/mL (≈ 55.2 µM) and the LC50 (D. magna [2]; ref 46) was 11.68 µg/mL (≈ 69.1 µM). The EC50 (R. subcapitata [3]; 96 h) was 5.55 µg/mL (≈ 32.8 µM), the “Hazard Ranking” value (A. fischeri [4]; GHS ranking of 30 min EC50 of ref 48) was “*** (toxic (<1 mg L^−1 ≤ 10 mg L^−1))” and the EC50 (A. fischeri [5]; ref 48) was 2.93 µg/mL (≈ 17.3 µM). The “Hazard Ranking” value (R. subcapitata [6]; [13]) was “*** (toxic (<1 mg L^−1 ≤ 10 mg L^−1))”.
For `CCc1cccc(C)c1N(C(=O)CCl)C(C)COC` (stereo not shown) [Metolachlor], the “Hazard Ranking” value (D. magna [1]; [10]) is given as “** (harmful: (<10 mg L^−1 ≤ 100 mg L^−1))”, the EC50 (D. magna [2]; ref 49) is given as 23.50 mg/L (≈ 82.8 µM) and the EC50 (R. subcapitata [3]; 72 h) is given as 0.055 µg/mL (≈ 0.194 µM). The EC50 (R. subcapitata [3]; 96 h) was 5.51 µg/mL (≈ 19.4 µM), the “Hazard Ranking” value (A. fischeri [4]; [11]) was “** (harmful: (<10 mg L^−1 ≤ 100 mg L^−1))” and the “Hazard Ranking” value (A. fischeri [4]; GHS ranking of 30 min EC50 of ref 50) was “* (not harmful: (>100 mg L^−1))”. For the same molecule, the “Hazard Ranking” value (A. fischeri [4]; GHS ranking of 30 min EC50 of ref 51) was “* (not harmful: (>100 mg L^−1))”, the EC50 (A. fischeri [5]; ref 49) was 17.00 µg/mL (≈ 59.9 µM) and the EC50 (A. fischeri [5]; ref 50) was 265.00 µg/mL (≈ 934 µM). The EC50 (A. fischeri [5]; ref 51) was 214.85 µg/mL (≈ 757 µM), the “Hazard Ranking” value (R. subcapitata [6]; [12]) was “**** (Very toxic (≤1 mg L^−1))” and the “Hazard Ranking” value (R. subcapitata [6]; [13]) was “*** (toxic (<1 mg L^−1 ≤ 10 mg L^−1))”.
For `CCC(=O)Nc1ccc(Cl)c(Cl)c1` [Propanil], the “Hazard Ranking” value (D. magna [1]; [10]) is listed as “*** (toxic (<1 mg L^−1 ≤ 10 mg L^−1))”, the EC50 (D. magna [2]; ref 49) is listed as 2.00 mg/L (≈ 9.17 µM) and the EC50 (R. subcapitata [3]; 72 h) is listed as 0.05 µg/mL (≈ 0.229 µM). For the same molecule, the “Hazard Ranking” value (R. subcapitata [6]; [12]) was “**** (Very toxic (≤1 mg L^−1))”.
`[Cl][Cu][Cl]` [copper chloride, reference compound] showed an EC50 (C. elegans) of 42.37 µg/mL.
In the case of `[K+].[K+].[O]=[Cr](=[O])([O-])[O][Cr](=[O])(=[O])[O-]` [potassium dichromate, reference compound], the “EC50 (light inhibition)” value (A. fischeri [7]) is reported as 3.730 µg/mL, the “EC50 (immobilization)” value (D. magna [8]; 24 h exposure) is reported as 10.501 µg/mL and the “EC50 (immobilization)” value (D. magna [8]; 48 h exposure) is reported as 5.66 µg/mL. The “EC50 (growth inhibition)” value (R. subcapitata [9]) was 0.987 µg/mL.
